# In patent publication US20020115710A1, “Composition and method” (priority 2000, published 2002):
# Experiments:
# GSH:GSSG ratio = GSH:GSSG ratio in isolated blood lymphocytes of dogs fed dl-alpha lipoic acid (Example 3); assay type: in vivo
# Text: (§1) 30 adult, random source, dogs were utilized for this study. Dogs were at least 10 months of age, not pregnant, not lactating and of reasonable body weight prior to start of test. Animals were randomized into 5 groups for dietary treatment with 3 males and 3 females per each group.
# All dogs were fed a control food (0 ppm dl-alpha-lipoic acid added) that met or exceeded all recommendations for nutrients as proposed by the American Association of Feed Control Officials (AAFCO 2000) during a 2 week prefeeding period (Table 1). Following the prefeeding period dogs were randomized into 5 treatment groups with one of the following dl-alpha lipoic acid target-inclusions (dry matter basis): 0 ppm, 150 ppm, 1500 ppm, 3000 ppm, 4500 ppm. In all diets, control and alpha lipoic acid, Vitamin E was added and was present at a level of 600-1000 International Units and Vitamin C was added at levels of 100-200 ppm.
# Blood was collected aseptically for complete blood count, and blood biochemistry analysis 2 weeks prior to start and again at 0, 28, 56, 84, 112, 140 and 168 days of the study. In addition, 15 ml of whole blood was collected for isolation of lymphocytes at day 0, 28 and 84 of the dietary intervention.
# Heparainzed whole blood was layered onto a 50 ml Accuspin conical centrifuge tube (Sigma Chemical) and an equal volume of Phosphate buffered saline (PBS) was added. Samples were centrifuged at 700 g for 30 minutes without brake. The monocyte layer was harvested, transferred to a 15 ml conical centrifuge tube, resuspended in 1-3 ml of PB, and centrifuged as before (First wash). A second wash was performed as the first wash. Finally, cells were harvested and suspended in perchloric acid (10%w/v) and frozen at −−70C until analysis.
# Samples were transferred from −70° C. freezer into a cooler with dry ice in it. Vials were centrifuged at 12,000 rpm for 5 minutes in a refrigerated centrifuge. An aliquot of supernatant for glutathione (GSH) analysis was transferred to a conical test tube.
# Derivatization of the acid soluble extracts was by the method of Reed and coworkers (Fariss et al) as modified by Jones (Jones et al)
# Briefly, 150 μl extract or external standards were added into a 1.5 ml eppendorf tube followed by addition of 20 μl γ-glu-glu internal standard and 50 μl IAA added followed by mixing. The solution was adjusted to pH ˜10 (purple color) by using KOH—KHCO3 working solution. Solutions were incubated 1 hr. under room temperature in the dark. Sanger's reagent was added at the same volume as of the total volume and the solution was incubated overnight (20 hrs) in the dark at room temperature.
# After incubation, the solution was centrifuged at 12000 rpm for 5 minutes with the supernatant transferred into another 1.5 ml eppendorf tube.
# Solvents and separation conditions were as described (Fariss, Jones). Levels of GSH and GSSG were quantified relative to authentic standards. Gamma-glutamyl-glutamate was used as an internal standard to assess derivatization efficiency.
# Comparison of values for clinical chemistry, hematology and body weights vs baseline were analyzed by way of paired t-test on SAS for windows with significance set at P<0.05. Means of values at each measured time point were separated by a one-way ANOVA with significance set at P<0.05. The difference in GSH:GSSG between day 84 and baseline were analyzed between groups by way of SAS for windows in a one-way ANOVA with significance set at P<0.05.
# dogs = experiment: Feeding safety study of dl-alpha lipoic acid in food: body weight, physical examination, serum biochemistry, hematology (Example 3); assay type: in vivo
# Text: as §1
# All dogs were fed a control food (0 ppm dl-alpha-lipoic acid added) that met or exceeded all recommendations for nutrients as proposed by the American Association of Feed Control Officials (AAFCO 2000) during a 2 week prefeeding period (Table 1). […]
# Test foods were the sole source of nutrients except for water. […] After dogs were selected and initial body weights taken, a food dose was calculated for each dog based on the expected ME of the food. Initial food dose calculations were based on the maintenance energy requirement (MER) for the dog modified by a factor to account for normal activity as calculated by the following formula: […]
# Dogs were weighed weekly and had food doses adjusted as needed in order to feed enough food to maintain their optimal body weight. Optimal body weight was determined to be 3 on a 5 point scale. […] All measures of body weight and food intake were recorded. […]
# Comparison of values for clinical chemistry, hematology and body weights vs baseline were analyzed by way of paired t-test on SAS for windows with significance set at P<0.05. […]
smiles,measurement,setting,value
O=C(O)CCCCC1CCSS1 (racemic) [dl-alpha-lipoic acid],Difference in GSH:GSSG ratio-d 0 to d 84 compared to baseline food,"GSH:GSSG ratio; 150 ppm inclusion in extruded food, N 6",70 ± 20
same,Difference in GSH:GSSG ratio-d 0 to d 84 compared to baseline food,"GSH:GSSG ratio; 1500 ppm inclusion in extruded food, N 6",24 ± 7
same,Difference in GSH:GSSG ratio-d 0 to d 84 compared to baseline food,"GSH:GSSG ratio; 3000 ppm inclusion in extruded food, N 4",10 ± 4
same,Difference in GSH:GSSG ratio-d 0 to d 84 compared to baseline food,"GSH:GSSG ratio; 4500 ppm inclusion in extruded food, N 4",50 ± 36
same,effect on reduced glutathione (GSH) to oxidized glutathione (GSSG) ratio,GSH:GSSG ratio; 84 days of feeding in diet,improves
same,safety of chronic feeding in diet,"dogs; dog, in vivo",safe
same,vomiting during the study,"dogs; dogs, no trend attributable to lipoic acid",Occasional vomiting was observed in several animals
